Test results from patent US20260022142A1, “MACROCYCLIC IMMUNOMODULATORS” (Bristol-Myers Squibb Company, priority 2022, published 2026).
Bridge positions count the residues as written; N and C are the ends. Square brackets hold non-standard residues; d marks the D form. Peptide text beside a SMILES is read from it. * marks the point of attachment. Tyr(3,5-F2) = N[C@@H](Cc1cc(F)c(O)c(F)c1)C(=O)O; Phe(3-COOH) = N[C@@H](Cc1cccc(C(=O)O)c1)C(=O)O; Phe(4-CONH2) = NC(=O)c1ccc(C[C@H](N)C(=O)O)cc1; Phe(4-COOH) = N[C@@H](Cc1ccc(C(=O)O)cc1)C(=O)O; Phe(4-CH2NH2) = NCc1ccc(C[C@H](N)C(=O)O)cc1; Tyr(3-Cl) = N[C@@H](Cc1ccc(O)c(Cl)c1)C(=O)O; Bip = N[C@@H](Cc1ccc(-c2ccccc2)cc1)C(=O)O; Phe(4-NH2) = Nc1ccc(C[C@H](N)C(=O)O)cc1; Phe(3-Me) = Cc1cccc(C[C@H](N)C(=O)O)c1; Phe(2-Me) = Cc1ccccc1C[C@H](N)C(=O)O; Cha = N[C@@H](CC1CCCCC1)C(=O)O; Carboxymethyl = O=C(O)C*; Orn = NCCC[C@H](N)C(=O)O; Aun = NCCCCCCCCCCC(=O)O; Dab = NCC[C@H](N)C(=O)O; Dap = NC[C@H](N)C(=O)O; AEEA = NCCOCCOCC(=O)O

Biological target: T1, PD-1/PD-L1 interaction (PE-labeled human PD-L1-Ig binding to Jurkat cell line over-expressing human PD-1) (Homo sapiens, UniProt Q15116)
T1 construct: expressed in transfected cells; host or cells: Jurkat
Assay: Jurkat-PD-1 Cell Binding High-Content Screening Assay (CBA)
Assay type: cell-based
Settings: Jurkat cell line over-expressing human PD-1; PE-labeled PD-L1-Ig 20 nM final; read-out: Jurkat hPD1-PDL1 IC50
How it was run: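 Human PD-L1-Ig carrying a covalent PE label on its Ig tag serves as the probe, applied at 20 nM final to compound-treated (2 h, 37° C) Jurkat-hPD-1 cells in medium with 10% fetal calf serum. After one hour, fixation and nuclear staining precede high-content image analysis.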

T1 sequence (Q15116 25-288): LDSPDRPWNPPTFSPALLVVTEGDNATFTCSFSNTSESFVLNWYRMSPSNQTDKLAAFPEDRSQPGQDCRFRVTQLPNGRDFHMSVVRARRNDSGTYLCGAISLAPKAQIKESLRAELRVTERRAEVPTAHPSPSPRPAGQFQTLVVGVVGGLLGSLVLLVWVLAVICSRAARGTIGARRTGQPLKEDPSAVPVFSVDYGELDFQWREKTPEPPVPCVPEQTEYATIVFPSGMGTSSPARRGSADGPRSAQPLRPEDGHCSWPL

| Compound | IC50 |
| --- | --- |
| Cc1cccc(C[C@@H]2NC(=O)[C@H](CC(=O)O)NC(=O)[C@H](Cc3ccc(OCC(=O)O)cc3)NC(=O)[C@H](CN)NC(=O)CSC[C@@H](C(=O)N[C@@H](CCN)C(=O)NCCOCCOCC(=O)NCCCCCCCCCCC(=O)O)NC(=O)[C@H](CCCN)NC(=O)[C@H](C(C)C)NC(=O)[C@H](CC3CCCCC3)NC(=O)[C@H](CCN)NC(=O)[C@@H](CC(C)C)NC(=O)[C@H](CCCN)NC(=O)[C@H](Cc3cc(F)c(O)c(F)c3)NC(=O)[C@H](Cc3ccc(-c4ccccc4)cc3)NC(=O)[C@H](Cc3ccc(O)cc3)NC2=O)c1 [Compound 2058] ({CH2CO}-[Dap]Y(Carboxymethyl)D[Phe(3-Me)]Y[Bip][Tyr(3,5-F2)][Orn][dL][Dab][Cha]V[Orn]C[Dab][AEEA][Aun]-OH; thioether N-14) | 4.7 nM |
| Cc1cccc(C[C@@H]2NC(=O)[C@H](CC(=O)O)NC(=O)[C@H](Cc3ccc(OCC(=O)O)cc3)NC(=O)[C@H](CN)NC(=O)CSC[C@@H](C(=O)N[C@@H](CCN)C(=O)NCCOCCOCC(=O)NCCCCCCCCCCC(=O)O)NC(=O)[C@H](CCCN)NC(=O)[C@H](C(C)C)NC(=O)[C@H](CC3CCCCC3)NC(=O)[C@H](CCN)NC(=O)[C@@H](CC(C)C)NC(=O)[C@H](CCCN)NC(=O)[C@H](Cc3ccc(OCC(=O)O)cc3)NC(=O)[C@H](Cc3ccc(-c4ccccc4)cc3)NC(=O)[C@H](C(C)C)NC2=O)c1 [Compound 2061] ({CH2CO}-[Dap]Y(Carboxymethyl)D[Phe(3-Me)]V[Bip]Y(Carboxymethyl)[Orn][dL][Dab][Cha]V[Orn]C[Dab][AEEA][Aun]-OH; thioether N-14) | 3.9 nM |
| Cc1cccc(C[C@@H]2NC(=O)[C@H](CC(=O)O)NC(=O)[C@H](Cc3ccc(OCC(=O)O)cc3)NC(=O)[C@H](CN)NC(=O)CSC[C@@H](C(=O)N[C@@H](CCN)C(=O)NCCOCCOCC(=O)NCCCCCCCCCCC(=O)O)NC(=O)[C@H](CCCN)NC(=O)[C@H](C(C)C)NC(=O)[C@H](CC3CCCCC3)NC(=O)[C@H](CCN)NC(=O)[C@@H](CC(C)C)NC(=O)[C@H](CCCN)NC(=O)[C@H](Cc3ccc(C(=O)O)cc3)NC(=O)[C@H](Cc3ccc(-c4ccccc4)cc3)NC(=O)[C@H](C(C)C)NC2=O)c1 [Compound 2062] ({CH2CO}-[Dap]Y(Carboxymethyl)D[Phe(3-Me)]V[Bip][Phe(4-COOH)][Orn][dL][Dab][Cha]V[Orn]C[Dab][AEEA][Aun]-OH; thioether N-14) | 7 nM |
| Cc1cccc(C[C@@H]2NC(=O)[C@H](CC(=O)O)NC(=O)[C@H](Cc3ccc(OCC(=O)O)cc3)NC(=O)[C@H](CN)NC(=O)CSC[C@@H](C(=O)N[C@@H](CCN)C(=O)NCCOCCOCC(=O)NCCCCCCCCCCC(=O)O)NC(=O)[C@H](CCCN)NC(=O)[C@H](C(C)C)NC(=O)[C@H](CC3CCCCC3)NC(=O)[C@H](CCN)NC(=O)[C@@H](CC(C)C)NC(=O)[C@H](CCCN)NC(=O)[C@H](Cc3ccc(O)cc3)NC(=O)[C@H](Cc3ccc(-c4ccccc4)cc3)NC(=O)[C@H](Cc3cccc(C(=O)O)c3)NC2=O)c1 [Compound 2064] ({CH2CO}-[Dap]Y(Carboxymethyl)D[Phe(3-Me)][Phe(3-COOH)][Bip]Y[Orn][dL][Dab][Cha]V[Orn]C[Dab][AEEA][Aun]-OH; thioether N-14) | 15.4 nM |
| Cc1cccc(C[C@@H]2NC(=O)[C@H](CC(=O)O)NC(=O)[C@H](Cc3ccc(OCC(=O)O)cc3)NC(=O)[C@H](CN)NC(=O)CSC[C@@H](C(=O)N[C@@H](CCN)C(=O)NCCOCCOCC(=O)NCCCCCCCCCCC(=O)O)NC(=O)[C@H](CCCN)NC(=O)[C@H](C(C)C)NC(=O)[C@H](CC3CCCCC3)NC(=O)[C@H](CCN)NC(=O)[C@@H](CC(C)C)NC(=O)[C@H](CCCN)NC(=O)[C@H](Cc3ccc(O)cc3)NC(=O)[C@H](Cc3ccc(-c4ccccc4)cc3)NC(=O)[C@H](Cc3ccccc3C)NC2=O)c1 [Compound 2069] ({CH2CO}-[Dap]Y(Carboxymethyl)D[Phe(3-Me)][Phe(2-Me)][Bip]Y[Orn][dL][Dab][Cha]V[Orn]C[Dab][AEEA][Aun]-OH; thioether N-14) | 14.9 nM |

The next lines start with the values.

| IC50 | Compound |
| --- | --- |
| 8 nM | Cc1cccc(C[C@@H]2NC(=O)[C@H](CC(=O)O)NC(=O)[C@H](Cc3ccc(OCC(=O)O)cc3)NC(=O)[C@H](CN)NC(=O)CSC[C@@H](C(=O)N[C@@H](CCN)C(=O)NCCOCCOCC(=O)NCCCCCCCCCCC(=O)O)NC(=O)[C@H](CCCN)NC(=O)[C@H](C(C)C)NC(=O)[C@H](CC3CCCCC3)NC(=O)[C@H](CCN)NC(=O)[C@@H](CC(C)C)NC(=O)[C@H](CCCN)NC(=O)[C@H](Cc3ccc(O)c(Cl)c3)NC(=O)[C@H](Cc3ccc(-c4ccccc4)cc3)NC(=O)[C@H](Cc3ccc(O)cc3)NC2=O)c1 [Compound 2057] ({CH2CO}-[Dap]Y(Carboxymethyl)D[Phe(3-Me)]Y[Bip][Tyr(3-Cl)][Orn][dL][Dab][Cha]V[Orn]C[Dab][AEEA][Aun]-OH; thioether N-14) |
| 4 nM | Cc1cccc(C[C@@H]2NC(=O)[C@H](CC(=O)O)NC(=O)[C@H](Cc3ccc(OCC(=O)O)cc3)NC(=O)[C@H](CN)NC(=O)CSC[C@@H](C(=O)N[C@@H](CCN)C(=O)NCCOCCOCC(=O)NCCCCCCCCCCC(=O)O)NC(=O)[C@H](CCCN)NC(=O)[C@H](C(C)C)NC(=O)[C@H](CC3CCCCC3)NC(=O)[C@H](CCN)NC(=O)[C@@H](CC(C)C)NC(=O)[C@H](CCCN)NC(=O)[C@H](Cc3ccc(O)cc3)NC(=O)[C@H](Cc3ccc(-c4ccccc4)cc3)NC(=O)[C@H](Cc3ccc(OCC(=O)O)cc3)NC2=O)c1 [Compound 2059] ({CH2CO}-[Dap]Y(Carboxymethyl)D[Phe(3-Me)]Y(Carboxymethyl)[Bip]Y[Orn][dL][Dab][Cha]V[Orn]C[Dab][AEEA][Aun]-OH; thioether N-14) |
| 4.3 nM | Cc1cccc(C[C@@H]2NC(=O)[C@H](CC(=O)O)NC(=O)[C@H](Cc3ccc(OCC(=O)O)cc3)NC(=O)[C@H](CN)NC(=O)CSC[C@@H](C(=O)N[C@@H](CCN)C(=O)NCCOCCOCC(=O)NCCCCCCCCCCC(=O)O)NC(=O)[C@H](CCCN)NC(=O)[C@H](C(C)C)NC(=O)[C@H](CC3CCCCC3)NC(=O)[C@H](CCN)NC(=O)[C@@H](CC(C)C)NC(=O)[C@H](CCCN)NC(=O)[C@H](Cc3ccc(O)cc3)NC(=O)[C@H](Cc3ccc(-c4ccccc4)cc3)NC(=O)[C@H](Cc3ccc(C(=O)O)cc3)NC2=O)c1 [Compound 2060] ({CH2CO}-[Dap]Y(Carboxymethyl)D[Phe(3-Me)][Phe(4-COOH)][Bip]Y[Orn][dL][Dab][Cha]V[Orn]C[Dab][AEEA][Aun]-OH; thioether N-14) |
| 4.9 nM | Cc1cccc(C[C@@H]2NC(=O)[C@H](CC(=O)O)NC(=O)[C@H](Cc3ccc(OCC(=O)O)cc3)NC(=O)[C@H](CN)NC(=O)CSC[C@@H](C(=O)N[C@@H](CCN)C(=O)NCCOCCOCC(=O)NCCCCCCCCCCC(=O)O)NC(=O)[C@H](CCCN)NC(=O)[C@H](C(C)C)NC(=O)[C@H](CC3CCCCC3)NC(=O)[C@H](CCN)NC(=O)[C@@H](CC(C)C)NC(=O)[C@H](CCCN)NC(=O)[C@H](Cc3ccc(O)cc3)NC(=O)[C@H](Cc3ccc(-c4ccccc4)cc3)NC(=O)[C@H](Cc3ccccc3)NC2=O)c1 [Compound 2063] ({CH2CO}-[Dap]Y(Carboxymethyl)D[Phe(3-Me)]F[Bip]Y[Orn][dL][Dab][Cha]V[Orn]C[Dab][AEEA][Aun]-OH; thioether N-14) |
| 4.8 nM | Cc1cccc(C[C@@H]2NC(=O)[C@H](CC(=O)O)NC(=O)[C@H](Cc3ccc(OCC(=O)O)cc3)NC(=O)[C@H](CN)NC(=O)CSC[C@@H](C(=O)N[C@@H](CCN)C(=O)NCCOCCOCC(=O)NCCCCCCCCCCC(=O)O)NC(=O)[C@H](CCCN)NC(=O)[C@H](C(C)C)NC(=O)[C@H](CC3CCCCC3)NC(=O)[C@H](CCN)NC(=O)[C@@H](CC(C)C)NC(=O)[C@H](CCCN)NC(=O)[C@H](Cc3ccc(O)cc3)NC(=O)[C@H](Cc3ccc(-c4ccccc4)cc3)NC(=O)[C@H](Cc3ccc(N)cc3)NC2=O)c1 [Compound 2065] ({CH2CO}-[Dap]Y(Carboxymethyl)D[Phe(3-Me)][Phe(4-NH2)][Bip]Y[Orn][dL][Dab][Cha]V[Orn]C[Dab][AEEA][Aun]-OH; thioether N-14) |
| 6 nM | Cc1cccc(C[C@@H]2NC(=O)[C@H](CC(=O)O)NC(=O)[C@H](Cc3ccc(OCC(=O)O)cc3)NC(=O)[C@H](CN)NC(=O)CSC[C@@H](C(=O)N[C@@H](CCN)C(=O)NCCOCCOCC(=O)NCCCCCCCCCCC(=O)O)NC(=O)[C@H](CCCN)NC(=O)[C@H](C(C)C)NC(=O)[C@H](CC3CCCCC3)NC(=O)[C@H](CCN)NC(=O)[C@@H](CC(C)C)NC(=O)[C@H](CCCN)NC(=O)[C@H](Cc3ccc(O)cc3)NC(=O)[C@H](Cc3ccc(-c4ccccc4)cc3)NC(=O)[C@H](Cc3ccc(C(N)=O)cc3)NC2=O)c1 [Compound 2066] ({CH2CO}-[Dap]Y(Carboxymethyl)D[Phe(3-Me)][Phe(4-CONH2)][Bip]Y[Orn][dL][Dab][Cha]V[Orn]C[Dab][AEEA][Aun]-OH; thioether N-14) |
| 53.2 nM | Cc1cccc(C[C@@H]2NC(=O)[C@H](CC(=O)O)NC(=O)[C@H](Cc3ccc(OCC(=O)O)cc3)NC(=O)[C@H](CN)NC(=O)CSC[C@@H](C(=O)N[C@@H](CCN)C(=O)NCCOCCOCC(=O)NCCCCCCCCCCC(=O)O)NC(=O)[C@H](CCCN)NC(=O)[C@H](C(C)C)NC(=O)[C@H](CC3CCCCC3)NC(=O)[C@H](CCN)NC(=O)[C@@H](CC(C)C)NC(=O)[C@H](CCCN)NC(=O)[C@H](Cc3ccc(O)cc3)NC(=O)[C@H](Cc3ccc(-c4ccccc4)cc3)NC(=O)[C@H](Cc3ccc(CN)cc3)NC2=O)c1 [Compound 2067] ({CH2CO}-[Dap]Y(Carboxymethyl)D[Phe(3-Me)][Phe(4-CH2NH2)][Bip]Y[Orn][dL][Dab][Cha]V[Orn]C[Dab][AEEA][Aun]-OH; thioether N-14) |
